Key:
[1] = tested on: COS-7 cells; assay: Luciferase reporter gene transfection of COS-7 cells; format: cell-based; settings: 200 μm chloroquine
Experimental: (§1) 5 μg of a luciferase reporter gene plasmid (pGL2 promega) was complexed with either the RGD-polylysine construct (possible structure of complex is shown in FIG. 1) or an equal concentration of polylysine in 100 μl of Optimem media (Gibco). The DNA/peptide complexes and also a DNA only control were then applied to 50% confluent cultured (Caco-2) colonic epithelial cells which were then allowed to express for 48 hours. The cells were then harvested and the cellular protein analysed for luciferase activity (Relative Light Units). The activity shown in FIG. 2 is adjusted to represent activity from 1 mg of cellular protein. In FIG. 2 the term "RGD peptide" is used to indicate the polylysine-integrin receptor binding protein described in Example 1.
The polylysine-integrin receptor binding peptide of Example 1 was again used. Essentially the methodology of Example 2 was followed with the substitution of COS-7 cells, and the use of different concentrations of chloroquine. It can be seen that 200 μm chloroquine gave a 4-fold increase of expression, compared with no chloroquine.
The methodology of Example 2 was repeated using COS-7 cells. In this experiment, different ratios of the K16 RGD peptide DNA were used with and without 100 μm chloroquine, with the results shown in FIG. 7. It can be seen that the optimum ratio was 37.5:1 in both the absence and presence of chloroquine.

[2] = tested on: (Caco-2) colonic epithelial cells; assay: Luciferase reporter gene (pGL2) internalisation and expression in Caco-2 cells; format: cell-based; settings: 5 μg pGL2 plasmid
Experimental: as §1
The procedure described in Example 2 was repeated but using the polylysine-integrin receptor binding peptide described in Example 3 instead of the polylysine-integrin receptor binding peptide described in Example 1. Control experiments were also performed.
The polylysine-integrin receptor binding peptide of Example 1 was used in a repeat of the procedure of Example 2, but using 1 μg of luciferase reporter gene plasmid. The effect of chloroquine was also investigated.

| Compound | cytopathic effects [1] | improvement of expression by addition of chloroquine ([2]; 100 μM chloroquine vs no chloroquine) [fold] | optimal peptide-DNA transfection efficiency (luciferase activity, Relative Light Units per mg cellular protein) ([2]; absence of chloroquine, 48 hours expression, indirect comparison of FIG. 2 and FIG. 3) |
| --- | --- | --- | --- |
| CCN(CC)CCCC(C)Nc1ccnc2cc(Cl)ccc12 (stereo not drawn) [chloroquine] | cytopathic effects of chloroquine were apparent | – | – |
| (K)16 GGCRGDMFGCA [Example 3] | – | ~2 | ~6×10^7 RLU/mg |

Source: patent US6083741A, “Internalisation of DNA, using conjugates of poly-l-lysine and an integrin receptor ligand” (Imperial College of Science Technology and Medicine, priority 1994, dated 2000)
